Laboratory results taken from patent US20240041854A1, “COLD MEDICINE AND ANTIVIRAL MEDICINE” (OTSUKA PHARMACEUTICAL FACTORY, INC., priority 2020, published 2024).
Like-named read-outs stand apart in the source and are kept apart here.

Assays:
Type in all cases: cell-based
[1] = tested on: human coronavirus HCoV-229E; design: unit not given here; conditions: MRC-5 cells, qPCR
[2] = tested on: human coronavirus OC43 (ATCC VR1588); experiment: Pharmacological Test 2: OC43 infection of HCT-8 host cells, virus RNA quantified by RT-qPCR; design: unit not given here; conditions: HCT-8 cells
Text: Compound X described above was used as the test compound. […] Comparative Compound 2 used herein was chloroquine phosphate, which has temporarily been approved by the US Food and Drug Administration (FDA) for emergency use in patients with new coronavirus infection.

[3] = tested on: SARS-CoV-2 (hCoV-19/Germany/BY-ChVir-929/2020); experiment: Pharmacological Test 3: SARS-CoV-2 infection of Vero E6 host cells, virus amount in culture supernatant by qPCR (Ct value); conditions: for Ct value (average value): Vero E6 cells, SARS-CoV-2, culture supernatant
Protocol: Compound X described above was used as the test compound. Vero E6 (ATCC CRL1586) was used as a host cell, and this was cultured on a 96-well plate until a monolayer sheet was obtained. Next, the medium was removed, 50 μL of a mixed suspension medium of SARS-CoV-2 (hCoV-19/Germany/BY-ChVir-929/2020) and a predetermined dose of the test compound was added, and the resultant was allowed to stand at 37° C. for 1 hour. The virus concentration was 150 PFU/well. Subsequently, the medium was removed, and the cells were washed with PBS. Then, a new medium mixed with the same dose of the test compound as before was added, and the cells were cultured at 37° C. overnight. After culturing, the virus amount in the culture supernatant was quantified by qPCR. As the primers and probe, the new coronavirus N1 protein-specific primers and probe specified by the Centers for Disease Control and Prevention (CDC) were used, and the conditions were also in accordance with the conditions specified by the CDC. The number of PCR cycles (Ct value) until the signal intensity of the PCR product reached a predetermined intensity (threshold value) was determined.

Structure (SMILES) | Virus amount ([1]; 0.78 μM test substance) | Virus amount ([1]; 1.58 μM test substance) | Virus amount ([1]; 3.1 μM test substance) | Virus amount ([1]; 6.3 μM test substance) | Virus amount ([1]; 12.5 μM test substance) | Virus amount ([1]; 25 μM test substance) | Virus amount ([1]; 50 μM test substance) | Virus amount ([2]; 0.78 μM test compound) | Virus amount ([2]; 3.1 μM test compound) | Virus amount ([2]; 12.5 μM test compound) | Virus amount ([2]; 25 μM test compound) | Virus amount ([2]; 50 μM test compound) | Virus amount ([1]; 1.6 μM test substance) | Virus amount ([2]; 1.58 μM test compound) | Virus amount ([2]; 6.3 μM test compound) | further results
Fc1ccc(-c2nc(-c3ccc(OCc4ncc(C(F)(F)F)cc4F)cc3Cl)c(Cl)[nH]2)cn1 [Compound Z, 2-[[3-chloro-4-(5-chloro-2-(6-fluoropyridin-3-yl)-1H-imidazol-4-yl)phenoxy]methyl]-3-fluoro-5-(trifluoromethyl)pyridine] | 3.E+08 | 1.E+08 | 3.E+08 | 3.E+08 | 8.E+07 | 2.E+05 | 4.E+04 | – | – | – | – | – | – | – | – | –
COc1cc(OCc2ncc(C(F)(F)F)cc2F)ccc1-c1nc(-c2ccc(F)nc2)[nH]c1Cl [Compound X, 2-[[4-(5-chloro-2-(6-fluoropyridin-3-yl)-1H-imidazol-4-yl)-3-methoxyphenoxy]methyl]-3-fluoro-5-(trifluoromethyl) pyridine] | 9.E+06 | 1.E+07 | 5.E+06 | 5.E+06 | 1.E+06 | 4.E+02 | 3.E+03 | 3.E+08 | 6.E+08 | 2.E+05 | 1.E+05 | 1.E+05 | – | – | – | Virus amount ([2]; 1.6 μM test compound): 5.E+08; Virus amount ([2]; 6.2 μM test compound): 1.E+08; Ct value (average value) ([3]; 0.78 μM test compound): 21.0; Ct value (average value) ([3]; 1.56 μM test compound): 21.1; Ct value (average value) ([3]; 3.13 μM test compound): 20.9; Ct value (average value) ([3]; 6.25 μM test compound): 21.7; Ct value (average value) ([3]; 12.50 μM test compound): 24.7; Ct value (average value) ([3]; 25.00 μM test compound): 24.8; Ct value (average value) ([3]; 50.00 μM test compound): 24.5; infection-suppressing effect on SARS-CoV-2 ([3]; in words, Vero E6): showed an infection-suppressing effect on SARS-CoV-2
COc1cc(OCc2ncc(C(F)(F)F)cc2F)ccc1-c1nc(-c2ccc(F)nc2)[nH]c1Br [Compound Y, 2-[[4-(5-bromo-2-(6-fluoropyridin-3-yl)-1H-imidazol-4-yl)-3-methoxyphenoxy]methyl]-3-fluoro-5-(trifluoromethyl)pyridine] | 2.E+08 | – | 1.E+08 | – | 8.E+07 | 4.E+04 | 3.E+04 | – | – | – | – | – | 1.E+08 | – | – | Virus amount ([1]; 6.2 μM test substance): 1.E+08
NC(=O)c1nc(F)c[nH]c1=O [compound 1, favipiravir] | – | – | – | – | – | – | – | 4.E+08 | 3.E+08 | 2.E+08 | 2.E+08 | 6.E+08 | – | 3.E+08 | 3.E+08 | –
NC(=O)c1nccnc1O [Comparative compound, 3-Hydroxypyrazine-2-carboxamide, reference compound] | – | – | 7.E+06 | 9.E+06 | 5.E+06 | 2.E+07 | 2.E+07 | – | – | – | – | – | 1.E+07 | – | – | Virus amount ([1]; 100 μM test substance): 2.E+07
CCN(CC)CCCC(C)Nc1ccnc2cc(Cl)ccc12 (stereo not drawn) [compound 2, chloroquine phosphate] | – | – | – | – | – | – | – | 2.E+08 | 4.E+08 | 6.E+07 | 3.E+06 | 9.E+06 | – | 3.E+08 | 6.E+08 | –
